According to ChEMBL document CHEMBL5126582, “Discovery of (2-(pyrrolidin-1-yl)thieno[3,2-d]pyrimidin-4-yl)(3,4,5-trimethoxyphenyl)methanone as a novel potent tubulin depolymerizing and vascular disrupting agent” (Eur J Med Chem, 2022):
pIC50: −log10 of the molar value. Calls of active or inactive are those of the source. The rule behind the calls is not given here.

Tests used:
HeLa [1] = experiment: Induction of mitochondrial membrane potential alteration in human HeLa cells assessed as viable cells at 100 nM measured after 48 hrs by JC1 staining-based flow cytometry analysis (reference value: 90.9 %); assay type: functional; details: read-out: Activity
HeLa [2] = experiment: Induction of apoptosis in human HeLa cells assessed as viable cells at 1 uM incubated for 24 hrs by annexin V FITC and propidium iodide staining based flow cytometry analysis (reference value: 85.7%); assay type: functional; details: read-out: Activity
HeLa [3] = experiment: Induction of apoptosis in human HeLa cells assessed as viable cells at 750 nM incubated for 72 hrs by annexin V FITC and propidium iodide staining based flow cytometry analysis (reference value: 90.1%); assay type: functional; details: read-out: Activity
HeLa [4] = experiment: Induction of apoptosis in human HeLa cells assessed as viable cells at 500 nM incubated for 48 hrs by annexin V FITC and propidium iodide staining based flow cytometry analysis (reference value: 85.5%); assay type: functional; details: read-out: Activity
HCT-116 = experiment: Antiproliferative activity against human HCT-116 cells assessed as reduction in cell viability incubated for 48 hrs by MTS assay; assay type: functional, cell-based; details: HCT-116, 48 h
HeLa [5] = experiment: Induction of mitochondrial membrane potential alteration in human HeLa cells assessed as necrotic cells at 100 nM measured after 48 hrs by JC1 staining-based flow cytometry analysis (reference value: 0%); assay type: functional
HeLa [6] = experiment: Induction of mitochondrial membrane potential alteration in human HeLa cells assessed as viable cells at 750 nM measured after 48 hrs by JC1 staining-based flow cytometry analysis (Rvb =90.9 %); assay type: functional; details: read-out: Activity
HeLa [7] = experiment: Inhibition of colony formation in human HeLa cells assessed as reduction in colony formation at 250 nM incubated for 24 hrs followed by culturing in fresh compound-free medium for 10 days by crystal violet staining based assay; assay type: functional, cell-based
HeLa [8] = experiment: Induction of apoptosis in human HeLa cells assessed as viable cells at 750 nM incubated for 24 hrs by annexin V FITC and propidium iodide staining based flow cytometry analysis (reference value: 85.7%); assay type: functional; details: read-out: Activity
[9] = Metabolic stability in rat liver microsomes assessed as half life incubated for 5 mins in presence of NADPH by HPLC analysis; assay type: ADME, Microsome
HeLa [10] = experiment: Induction of apoptosis in human HeLa cells assessed as late apoptotic cells at 500 nM incubated for 72 hrs by annexin V FITC and propidium iodide staining based flow cytometry analysis (reference value: 4.70%); assay type: functional
HeLa [11] = experiment: Induction of apoptosis in human HeLa cells assessed as viable cells at 750 nM incubated for 48 hrs by annexin V FITC and propidium iodide staining based flow cytometry analysis (reference value: 85.5%); assay type: functional; details: read-out: Activity
HeLa [12] = experiment: Inhibition of colony formation in human HeLa cells assessed as reduction in colony formation at 1 to 250 nM incubated for 48 hrs followed by culturing in fresh compound-free medium for 10 days by crystal violet staining based assay; assay type: functional, cell-based; details: dose 1-250 nM, DDE = dose-dependent effect
HeLa [13] = experiment: Induction of cell cycle arrest in human HeLa cells assessed as reduction of cells at S phase at 100 to 2000 nM incubated for 24 to 48 hrs by […] flow cytometry; assay type: functional; details: dose 100-2000 nM, time 24-48 hrs
HeLa [14] = experiment: Induction of apoptosis in human HeLa cells assessed as early apoptotic cells at 750 nM incubated for 24 hrs by annexin V FITC and propidium iodide staining based flow cytometry analysis (reference value: 0.12%); assay type: functional
[15] = Antiproliferative activity against human A549/PTX cells assessed as reduction in cell viability measured for 48 hrs by MTS assay; assay type: functional, cell-based
HeLa [16] = experiment: Induction of apoptosis in human HeLa cells assessed as early apoptotic cells at 1 uM incubated for 24 hrs by annexin V FITC and propidium iodide staining based flow cytometry analysis (reference value: 0.12%); assay type: functional
HeLa [17] = experiment: Induction of apoptosis in human HeLa cells assessed as necrotic cells at 750 nM incubated for 24 hrs by annexin V FITC and propidium iodide staining based flow cytometry analysis (reference value: 1.14 %); assay type: functional
HeLa [18] = experiment: Induction of apoptosis in human HeLa cells assessed as necrotic cells at 100 nM incubated for 72 hrs by annexin V FITC and propidium iodide staining based flow cytometry analysis (reference value: 2.88 %); assay type: functional
HeLa [19] = experiment: Induction of apoptosis in human HeLa cells assessed as early apoptotic cells at 100 nM incubated for 24 hrs by annexin V FITC and propidium iodide staining based flow cytometry analysis (reference value: 0.12%); assay type: functional
HeLa [20] = experiment: Induction of apoptosis in human HeLa cells assessed as viable cells at 100 nM incubated for 72 hrs by annexin V FITC and propidium iodide staining based flow cytometry analysis (reference value: 90.1%); assay type: functional; details: read-out: Activity
HeLa [21] = experiment: Induction of mitochondrial membrane potential alteration in human HeLa cells assessed as late apoptotic cells at 250 nM measured after 48 hrs by JC1 staining-based flow cytometry analysis (reference value: 0.009%); assay type: functional
HeLa [22] = experiment: Induction of apoptosis in human HeLa cells assessed as early apoptotic cells at 100 nM incubated for 72 hrs by annexin V FITC and propidium iodide staining based flow cytometry analysis (reference value: 2.36%); assay type: functional
HeLa [23] = experiment: Induction of apoptosis in human HeLa cells assessed as late apoptotic cells at 100 nM incubated for 24 hrs by annexin V FITC and propidium iodide staining based flow cytometry analysis (reference value: 0.05%); assay type: functional
HeLa [24] = experiment: Induction of apoptosis in human HeLa cells assessed as necrotic cells at 1 uM incubated for 72 hrs by annexin V FITC and propidium iodide staining based flow cytometry analysis (reference value: 2.88 %); assay type: functional
HeLa [25] = experiment: Induction of apoptosis in human HeLa cells assessed as late apoptotic cells at 1 uM incubated for 24 hrs by annexin V FITC and propidium iodide staining based flow cytometry analysis (reference value: 0.05%); assay type: functional
HeLa [26] = experiment: Induction of apoptosis in human HeLa cells assessed as late apoptotic cells at 750 nM incubated for 24 hrs by annexin V FITC and propidium iodide staining based flow cytometry analysis (reference value: 0.05%); assay type: functional
HeLa [27] = experiment: Induction of mitochondrial membrane potential alteration in human HeLa cells assessed as viable cells at 250 nM measured after 48 hrs by JC1 staining-based flow cytometry analysis (reference value: 90.9%); assay type: functional; details: read-out: Activity
HeLa [28] = experiment: Induction of mitochondrial membrane potential alteration in human HeLa cells assessed as early apoptotic cells at 100 nM measured after 48 hrs by JC1 staining-based flow cytometry analysis (reference value: 9.07%); assay type: functional
HeLa [29] = experiment: Induction of apoptosis in human HeLa cells assessed as viable cells at 500 nM incubated for 24 hrs by annexin V FITC and propidium iodide staining based flow cytometry analysis (reference value: 85.7%); assay type: functional; details: read-out: Activity
HeLa [30] = experiment: Induction of apoptosis in human HeLa cells assessed as early apoptotic cells at 100 nM incubated for 48 hrs by annexin V FITC and propidium iodide staining based flow cytometry analysis (reference value: 6.01%); assay type: functional
HeLa [31] = experiment: Induction of apoptosis in human HeLa cells assessed as early apoptotic cells at 750 nM incubated for 48 hrs by annexin V FITC and propidium iodide staining based flow cytometry analysis (reference value: 6.01%); assay type: functional
HeLa [32] = experiment: Induction of apoptosis in human HeLa cells assessed as late apoptotic cells at 500 nM incubated for 48 hrs by annexin V FITC and propidium iodide staining based flow cytometry analysis (reference value: 8.87%); assay type: functional

`COc1cc(C(=O)c2nc(N3CCCC3)nc3ccsc23)cc(OC)c1OC` showed a viability at 0.1 µM (HeLa [1]) of 92.4%, a viability at 1 µM (HeLa [2]) of 80.1% and a viability at 0.75 µM (HeLa [3]) of 27.7%. For the same compound, the viability at 0.5 µM (HeLa [4]) was 78.1%, the pIC50 (HCT-116) was 7.68 and the Activity (HeLa [5]) was 0.02%. The viability at 0.75 µM (HeLa [6]) was 56.7%, the inhibition (HeLa [7]) was “Active” and the viability at 0.75 µM (HeLa [8]) was 81.3%. It also gave a half-life [9] of 17 min, an Activity (HeLa [10]) of 14.5% and a viability at 0.75 µM (HeLa [11]) of 36.7%. For the same compound, the inhibition (HeLa [12]) was “Dde”, the Activity (HeLa [13]) was “Active” and the Activity (HeLa [14]) was 8.59%. The pIC50 [15] was 7.61, the Activity (HeLa [16]) was 7.23% and the Activity (HeLa [17]) was 3.09%. It also gave an Activity (HeLa [18]) of 5.32%, an Activity (HeLa [19]) of 2.98% and a viability at 0.1 µM (HeLa [20]) of 85.1%. For the same compound, the Activity (HeLa [21]) was 0.01%, the Activity (HeLa [22]) was 2.65% and the Activity (HeLa [23]) was 5.04%. It also gave an Activity (HeLa [24]) of 41.9%, an Activity (HeLa [25]) of 0.13% and an Activity (HeLa [26]) of 7.06%. It also gave a viability at 0.25 µM (HeLa [27]) of 90.5%, an Activity (HeLa [28]) of 7.59% and a viability at 0.5 µM (HeLa [29]) of 80.1%. It also gave an Activity (HeLa [30]) of 2.8%, an Activity (HeLa [31]) of 7.72% and an Activity (HeLa [32]) of 10.8%.
